Biological target: Autotaxin (Homo sapiens (Human), UniProt Q13822)
Test: Autotaxin LPC Cascade Assay
Type: biochemical
Conditions: Autotaxin 5 nM, LPC 100 μM, choline oxidase/HRP/Ampliflu Red fluorescence read-out, 2% DMSO, RT; read-out: IC50 ATX Activity
Description: Autotaxin LPC Cascade Assay:
HA130 and Test Compounds:
Prepare a 1 mM stock of HA130 and a 3 mM stock of each compound in 100% DMSO. Perform a 1:3 serial dilution in DMSO (transfer 5 l of compound to 10 l of DMSO). Add 240 l of buffer to generate a top working concentration of 40 µM (HA130) and 120 µM (test compound) in 4% DMSO.
Ampliflu Red—Prepare a stock of 5 mM from 100 mM in 100% DMSO. Further dilute to a working concentration of 400 μM in buffer (8% DMSO).
Together with compound this yields a 2% DMSO final concentration.
Choline Oxidase/HRP—0.8 U/mL CO and 8 U/mL HRP.
Incubate for 10 mins at RT. Add 5 µl of LPC and incubate for 1 hr on the plate shaker. Prepare the CO/HRP and AR immediately prior to use. Add 2.5 l of CO/HRP and follow with 2.5 l AR. Note order of addition, CO/HRP mix before AR. Read fluorescence intensity (ex/em: 530/590 nm) kinetically for 30 min at RT on the Tecan M1000.

Compound | IC50 [nM]
Cc1cccc(C(=O)N[C@@H](C(=O)N2CCC3(CC2)C(=O)N(C)CN3c2ccccc2)C2CCOCC2)c1 (single isomer, unassigned) [Example 129] | 500 to 1000
CCc1ccc(F)c(C(=O)N[C@@H](C(=O)N2CCC3(CC2)C(=O)N(C)[C@H](C)N3c2ccc(C(=O)O)cc2)C(C)C)c1 (single isomer, unassigned) [Example 210] | < 500
CCc1ccc(F)c(C(=O)N[C@@H](C(=O)N2CCC3(CC2)C(=O)N(C)[C@@H](C)N3c2ccc(C(=O)O)cc2)C(C)C)c1 (single isomer, unassigned) [Example 211] | < 500
Cc1cccc(C(=O)N[C@@H](C(=O)N2CCC3(CC2)C(=O)N(C)C(=O)N3c2ccccc2)C2CCCCC2)c1 [Example 1, (R)—N-(1-Cyclohexyl-2-(3-methyl-2,4-dioxo-1-phenyl-1,3,8-triazaspiro[4.5]decan-8-yl)-2-oxoethyl)-3-methylbenzamide] | < 500
CC(C)[C@@H](NC(=O)c1cccc(F)c1)C(=O)N1CCC2(CC1)C(=O)N(C)C(=O)N2c1ccccc1 [Example 2, (R)-3-Fluoro-N-(3-methyl-1-(3-methyl-2,4-dioxo-1-phenyl-1,3,8-triazaspiro[4.5]decan-8-yl)-1-oxobutan-2-yl)benzamide] | ≥ 1000
Cc1cccc(C(=O)N[C@@H](C(=O)N2CCC3(CC2)C(=O)N(C)C(=O)N3c2ccccc2)C(C)C)c1F [Example 3, (R)-2-Fluoro-3-methyl-N-(3-methyl-1-(3-methyl-2,4-dioxo-1-phenyl-1,3,8-triazaspiro[4.5]decan-8-yl)-1-oxobutan-2-yl)benzamide] | 500 to 1000
CC[C@@H](C)[C@@H](NC(=O)c1cccc(C)c1F)C(=O)N1CCC2(CC1)C(=O)N(C)C(=O)N2c1ccccc1 [Example 4, 2-Fluoro-3-methyl-N-((2R,3R)-3-methyl-1-(3-methyl-2,4-dioxo-1-phenyl-1,3,8-triazaspiro[4.5]decan-8-yl)-1-oxopentan-2-yl)benzamide] | < 500
CCc1ccc(F)c(C(=O)N[C@@H](C(=O)N2CCC3(CC2)C(=O)N(CC#N)C(=O)N3c2ccc(OC)cc2)C(C)C)c1 [Example 5, (R)—N-(1-(3-(Cyanomethyl)-1-(4-methoxyphenyl)-2,4-dioxo-1,3,8-triazaspiro[4.5]decan-8-yl)-3-methyl-1-oxobutan-2-yl)-5-ethyl-2-fluorobenzamide] | < 500
COc1ccc(N2C(=O)N(C)C(=O)C23CCN(C(=O)[C@H](NC(=O)c2cc(C(F)(F)F)ccc2F)C(C)C)CC3)cc1F [Example 6, (R)-2-Fluoro-N-(1-(1-(3-fluoro-4-methoxyphenyl)-3-methyl-2,4-dioxo-1,3,8-triazaspiro[4.5]decan-8-yl)-3-methyl-1-oxobutan-2-yl)-5-(trifluoromethyl)benzamide] | < 500
CC(C)[C@@H](NC(=O)c1cc(C(F)(F)F)ccc1F)C(=O)N1CCC2(CC1)C(=O)N(C)C(=O)N2c1ccc(C#N)cc1 [Example 7, (R)—N-(1-(1-(4-Cyanophenyl)-3-methyl-2,4-dioxo-1,3,8-triazaspiro[4.5]decan-8-yl)-3-methyl-1-oxobutan-2-yl)-2-fluoro-5-(trifluoromethyl)benzamide] | < 500
CC(C)[C@@H](NC(=O)c1cc(C(F)(F)F)ccc1F)C(=O)N1CCC2(CC1)C(=O)N(C)C(=O)N2c1cccc(C#N)c1 [Example 8, (R)—N-(1-(1-(3-Cyanophenyl)-3-methyl-2,4-dioxo-1,3,8-triazaspiro[4.5]decan-8-yl)-3-methyl-1-oxobutan-2-yl)-2-fluoro-5-(trifluoromethyl)benzamide] | < 500
CC(C)[C@@H](NC(=O)c1cc(C(F)(F)F)ccc1F)C(=O)N1CCC2(CC1)C(=O)N(C)C(=O)N2c1ccc(S(C)(=O)=O)cc1 [Example 9, (R)-2-Fluoro-N-(3-methyl-1-(3-methyl-1-(4-(methylsulfonyl)phenyl)-2,4-dioxo-1,3,8-triazaspiro[4.5]decan-8-yl)-1-oxobutan-2-yl)-5-(trifluoromethyl)benzamide] | 500 to 1000

Source: US10233182B2, “Substituted spirocyclic inhibitors of autotaxin” (X-Rx, Inc., priority 2014, dated 2019)
